# Data: patent US10266609B2, “Immunomodulating beta-1,6-D-glucans” (Innate Biotherapeutics, LLC, priority 2014, dated 2019)
# Tested on: Anti-β-1,6-Glucan IgG antibodies (affinity purified from IVIG, Baxter)
# Assay: ELISA: binding of oligosaccharides to anti-β-1,6-glucan antibodies; note: key: a plus (+) sign indicates that the glucan was active in the assay; a minus (−) sign indicates that the glucan was not active; the '+/−' symbol indicates inconclusive results
# Conditions: plate coated with oligosaccharide in PBS; 40 ug/mL anti-Beta 1,6 Glucan IgG; anti-human IgG-HRP, TMB, absorbance at 620 nm
# Description: Binding of oligosaccharides to anti-β-1,6-glucan antibodies is performed as described in the following protocol.
# • 1. […] Anti-β-1,6-Glucan IgG antibodies (affinity purified from IVIG, Baxter) • 6. […] PBS-Tween buffer (PH 7.2, 0.05% Tween 20, Kpl cat #51-12-01) II. Method: Detection of Anti-Beta Glucan IgG by ELISA • 1. Coat plate with oligosaccharides in PBS overnight at 4° C. • 2. Wash 3 times with 250 uL of PBS-Tween • 3. Empty plate • 4. Block plate with 200 uL of Casein for 1 hour at room temperature • 5. Empty plate • 6. Add 40 ug/mL anti-Beta 1,6 Glucan IgG (4 ug/well) in Casein • 7. Incubate for 45 min at room temperature • 8. Wash 3 times with 250 uL of PBS-Tween • 9. Empty plate • 10. Add detection antibody: anti-human IgG-HRP at 1:5000—in casein. Incubate for 45 min at room temperature in the dark • 11. Wash 5 times with 250 uL of PBS-Tween • 12. Empty plate • 13. Add 100 uL of one step ultra TMB • 14. Measure the absorbance at 620 nm every 1 min for 60 min Tables 1-3 provide ELISA assay data for certain glucan compounds.
row,Compound,ELISA assay data: glucan active in detection of anti-beta glucan IgG
1,"1-O-[2-(2-oxymethoxy)ethoxy]-6-O—[O-β-D-glucopyranosyl-(1,6)]3-β-D-glucopyranoside [β-O(CH2)2O(CH2)2C═O, n=4]",+
2,"3,5-bis(1-[2-[O-β-D-glucopyranosyl-(1→6)-O-β-D-glucopyranosyl-(1→6)-O-β-D-glucopyranosyl-(1→6)-α-D-glucopyranosyl]oxy]ethyl-1H-1,2,3-triazol-4-yl)methoxybenzoic acid [(β-D-glucopyanosy1-1,6)nα-O(CH2)2-, n=4]",+
3,"O=C(O)C1CCN(CC(O)[C@@H](O)[C@H](O)[C@H](O)CO[C@@H]2O[C@H](CO[C@@H]3O[C@H](CO[C@@H]4O[C@H](CO)[C@@H](O)[C@H](O)[C@H]4O)[C@@H](O)[C@H](O)[C@H]3O)[C@@H](O)[C@H](O)[C@H]2O)C1 (mixture of isomers) [3-pyrrolidineCO2H, n=3]",+
4,"O=C(O)C1CCN(CC(O)[C@@H](O)[C@H](O)[C@H](O)CO[C@@H]2O[C@H](CO[C@@H]3O[C@H](CO[C@@H]4O[C@H](CO[C@@H]5O[C@H](CO)[C@@H](O)[C@H](O)[C@H]5O)[C@@H](O)[C@H](O)[C@H]4O)[C@@H](O)[C@H](O)[C@H]3O)[C@@H](O)[C@H](O)[C@H]2O)C1 (mixture of isomers) [3-pyrrolidineCO2H, n=4]",+
5,"O=C(O)C1CCN(CC(O)[C@@H](O)[C@H](O)[C@H](O)CO[C@@H]2O[C@H](CO[C@@H]3O[C@H](CO[C@@H]4O[C@H](CO[C@@H]5O[C@H](CO[C@@H]6O[C@H](CO)[C@@H](O)[C@H](O)[C@H]6O)[C@@H](O)[C@H](O)[C@H]5O)[C@@H](O)[C@H](O)[C@H]4O)[C@@H](O)[C@H](O)[C@H]3O)[C@@H](O)[C@H](O)[C@H]2O)C1 (mixture of isomers) [3-pyrrolidineCO2H, n=5]",+
6,"O=C(O)C1CCN(CC(O)[C@@H](O)[C@H](O)[C@H](O)CO[C@@H]2O[C@H](CO[C@@H]3O[C@H](CO[C@@H]4O[C@H](CO)[C@@H](O)[C@H](O)[C@H]4O)[C@@H](O)[C@H](O)[C@H]3O)[C@@H](O)[C@H](O)[C@H]2O)CC1 (mixture of isomers) [4-piperidineCO2H, n=3, N-[6-[(O-β-D-glucopyranosyl-(1,6))2-β-D-glucopyranosyl](2RS,3R,4R,5R)-2,3,4,5-tetrahydroxyhexyl]piperidine-4-carboxylic acid]",+
7,"O=C(O)C1CCN(CC(O)[C@@H](O)[C@H](O)[C@H](O)CO[C@@H]2O[C@H](CO[C@@H]3O[C@H](CO[C@@H]4O[C@H](CO[C@@H]5O[C@H](CO)[C@@H](O)[C@H](O)[C@H]5O)[C@@H](O)[C@H](O)[C@H]4O)[C@@H](O)[C@H](O)[C@H]3O)[C@@H](O)[C@H](O)[C@H]2O)CC1 (mixture of isomers) [4-piperidineCO2H, n=4]",+
8,"O=C(O)C1CCN(CC(O)[C@@H](O)[C@H](O)[C@H](O)CO[C@@H]2O[C@H](CO[C@@H]3O[C@H](CO[C@@H]4O[C@H](CO[C@@H]5O[C@H](CO[C@@H]6O[C@H](CO)[C@@H](O)[C@H](O)[C@H]6O)[C@@H](O)[C@H](O)[C@H]5O)[C@@H](O)[C@H](O)[C@H]4O)[C@@H](O)[C@H](O)[C@H]3O)[C@@H](O)[C@H](O)[C@H]2O)CC1 (mixture of isomers) [4-piperidineCO2H, n=5]",+
9,"CN(Cc1ccc(C(=O)O)cc1)CC(O)[C@@H](O)[C@H](O)[C@H](O)CO[C@@H]1O[C@H](CO[C@@H]2O[C@H](CO[C@@H]3O[C@H](CO[C@@H]4O[C@H](CO)[C@@H](O)[C@H](O)[C@H]4O)[C@@H](O)[C@H](O)[C@H]3O)[C@@H](O)[C@H](O)[C@H]2O)[C@@H](O)[C@H](O)[C@H]1O (mixture of isomers) [N(Me),N(CH2)4-BzOH, n=4]",+
10,"CN(Cc1ccc(C(=O)O)cc1)CC(O)[C@@H](O)[C@H](O)[C@H](O)CO[C@@H]1O[C@H](CO[C@@H]2O[C@H](CO[C@@H]3O[C@H](CO[C@@H]4O[C@H](CO[C@@H]5O[C@H](CO)[C@@H](O)[C@H](O)[C@H]5O)[C@@H](O)[C@H](O)[C@H]4O)[C@@H](O)[C@H](O)[C@H]3O)[C@@H](O)[C@H](O)[C@H]2O)[C@@H](O)[C@H](O)[C@H]1O (mixture of isomers) [N(Me),N(CH2)4-BzOH, n=5]",+
11,"CN(Cc1ccc(C(=O)O)cc1)CC(O)[C@@H](O)[C@H](O)[C@H](O)CO[C@@H]1O[C@H](CO[C@@H]2O[C@H](CO[C@@H]3O[C@H](CO[C@@H]4O[C@H](CO[C@@H]5O[C@H](CO[C@@H]6O[C@H](CO)[C@@H](O)[C@H](O)[C@H]6O)[C@@H](O)[C@H](O)[C@H]5O)[C@@H](O)[C@H](O)[C@H]4O)[C@@H](O)[C@H](O)[C@H]3O)[C@@H](O)[C@H](O)[C@H]2O)[C@@H](O)[C@H](O)[C@H]1O (mixture of isomers) [N(Me),N(CH2)4-BzOH, n=6]",+
12,"CN(CCCCCN)CC(O)[C@@H](O)[C@H](O)[C@H](O)CO[C@@H]1O[C@H](CO[C@@H]2O[C@H](CO[C@@H]3O[C@H](CO)[C@@H](O)[C@H](O)[C@H]3O)[C@@H](O)[C@H](O)[C@H]2O)[C@@H](O)[C@H](O)[C@H]1O (mixture of isomers) [N(Me),N(CH2)5NH2, n=3]",+
13,"CN(CCCCCN)CC(O)[C@@H](O)[C@H](O)[C@H](O)CO[C@@H]1O[C@H](CO[C@@H]2O[C@H](CO[C@@H]3O[C@H](CO[C@@H]4O[C@H](CO[C@@H]5O[C@H](CO)[C@@H](O)[C@H](O)[C@H]5O)[C@@H](O)[C@H](O)[C@H]4O)[C@@H](O)[C@H](O)[C@H]3O)[C@@H](O)[C@H](O)[C@H]2O)[C@@H](O)[C@H](O)[C@H]1O (mixture of isomers) [N(Me),N(CH2)5NH2, n=5]",+
14,"CN(CCCCCN)CC(O)[C@@H](O)[C@H](O)[C@H](O)CO[C@@H]1O[C@H](CO[C@@H]2O[C@H](CO[C@@H]3O[C@H](CO[C@@H]4O[C@H](CO[C@@H]5O[C@H](CO[C@@H]6O[C@H](CO)[C@@H](O)[C@H](O)[C@H]6O)[C@@H](O)[C@H](O)[C@H]5O)[C@@H](O)[C@H](O)[C@H]4O)[C@@H](O)[C@H](O)[C@H]3O)[C@@H](O)[C@H](O)[C@H]2O)[C@@H](O)[C@H](O)[C@H]1O (mixture of isomers) [N(Me),N(CH2)5NH2, n=6]",+
15,"[N-]=[N+]=NCCO[C@@H]1O[C@H](CO[C@@H]2O[C@H](CO[C@@H]3O[C@H](CO[C@@H]4O[C@H](CO)[C@@H](O)[C@H](O)[C@H]4O)[C@@H](O)[C@H](O)[C@H]3O)[C@@H](O)[C@H](O)[C@H]2O)[C@@H](O)[C@H](O)[C@H]1O (stereo in doubt) [β-O(CH2)2N3, n=4, 2-Azido ethyl [O-β-D-glucopyranosyl-1,6]3-β-D-glucopyranoside]",+
16,"O=C(O)c1cc(OCc2cn(CCO[C@H]3O[C@H](CO[C@@H]4O[C@H](CO[C@@H]5O[C@H](CO)[C@@H](O)[C@H](O)[C@H]5O)[C@@H](O)[C@H](O)[C@H]4O)[C@@H](O)[C@H](O)[C@H]3O)nn2)cc(OCc2cn(CCO[C@H]3O[C@H](CO[C@@H]4O[C@H](CO[C@@H]5O[C@H](CO)[C@@H](O)[C@H](O)[C@H]5O)[C@@H](O)[C@H](O)[C@H]4O)[C@@H](O)[C@H](O)[C@H]3O)nn2)c1 [(β-D-glucopyanosy1-1,6)nα-O(CH2)2-, n=3, 3,5-bis(1[2-[O-β-D-glucopyranosyl-(1→6)-O-β-D-glucopyranosyl-(1→6)-α-D-glucopyranosyl]oxy]ethyl-1H-1,2,3-triazol-4-yl)methoxybenzoic acid]",+
17,"O=C(O)c1cc(OCc2cn(CCO[C@@H]3O[C@H](CO[C@@H]4O[C@H](CO[C@@H]5O[C@H](CO[C@@H]6O[C@H](CO)[C@@H](O)[C@H](O)[C@H]6O)[C@@H](O)[C@H](O)[C@H]5O)[C@@H](O)[C@H](O)[C@H]4O)[C@@H](O)[C@H](O)[C@H]3O)nn2)cc(OCc2cn(CCO[C@@H]3O[C@H](CO[C@@H]4O[C@H](CO[C@@H]5O[C@H](CO[C@@H]6O[C@H](CO)[C@@H](O)[C@H](O)[C@H]6O)[C@@H](O)[C@H](O)[C@H]5O)[C@@H](O)[C@H](O)[C@H]4O)[C@@H](O)[C@H](O)[C@H]3O)nn2)c1 [(β-D-glucopyanosy1-1,6)nβ-O(CH2)2-, n=4, 3,5-bis(1[2-[O-β-D-glucopyranosyl-(1→6)]4oxy]ethyl-1H-1,2,3-triazol-4-yl)methoxybenzoic acid]",+
18,"O=C(O)c1cc(OCc2cn(CCO[C@@H]3O[C@H](CO[C@@H]4O[C@H](CO[C@@H]5O[C@H](CO[C@@H]6O[C@H](CO[C@@H]7O[C@H](CO)[C@@H](O)[C@H](O)[C@H]7O)[C@@H](O)[C@H](O)[C@H]6O)[C@@H](O)[C@H](O)[C@H]5O)[C@@H](O)[C@H](O)[C@H]4O)[C@@H](O)[C@H](O)[C@H]3O)nn2)cc(OCc2cn(CCO[C@@H]3O[C@H](CO[C@@H]4O[C@H](CO[C@@H]5O[C@H](CO[C@@H]6O[C@H](CO[C@@H]7O[C@H](CO)[C@@H](O)[C@H](O)[C@H]7O)[C@@H](O)[C@H](O)[C@H]6O)[C@@H](O)[C@H](O)[C@H]5O)[C@@H](O)[C@H](O)[C@H]4O)[C@@H](O)[C@H](O)[C@H]3O)nn2)c1 [(β-D-glucopyanosy1-1,6)nβ-O(CH2)2-, n=5, 3,5-bis(1[2-[O-β-D-glucopyranosyl-(1→6)]5oxy]ethyl-1H-1,2,3-triazol-4-yl)methoxybenzoic acid]",+
